Laboratory results: the supplement of paper PMC10307832

Experiments:
Test in all cases: relative viability (nuclei count vs DMSO), 5 days (fraction); higher = more cells survive
VX-11e + Luminespib = compound: CC1=CN=C(N=C1C2=CNC(=C2)C(=O)N[C@H](CO)C3=CC(=CC=C3)Cl)NC4=C(C=C(C=C4)F)Cl [VX-11e] + CCNC(=O)c1noc(-c2cc(C(C)C)c(O)cc2O)c1-c1ccc(CN2CCOCC2)cc1 [Luminespib] (partner 0.01 µM)
In short: (§1)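 Relative viability equals treated-well nuclei counts divided by vehicle-well nuclei counts. Counts came from 4× images of lung cancer cell lines grown in 1536-well plates for 5 days after pin-tool dosing on the day after seeding. Dosing used one drug alone or a fixed anchor-drug dose plus five library-drug doses (not always all listed) in √10 steps, and values are medians of duplicate plates.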

VX-11e + OSI-027 = compound: CC1=CN=C(N=C1C2=CNC(=C2)C(=O)N[C@H](CO)C3=CC(=CC=C3)Cl)NC4=C(C=C(C=C4)F)Cl [VX-11e] + COc1cccc2cc(-c3nc([C@H]4CC[C@H](C(=O)O)CC4)n4ncnc(N)c34)[nH]c12 [OSI-027] (partner 0.5 µM)
In short: as §1

VX-11e + Lapatinib = compound: CC1=CN=C(N=C1C2=CNC(=C2)C(=O)N[C@H](CO)C3=CC(=CC=C3)Cl)NC4=C(C=C(C=C4)F)Cl [VX-11e] + CS(=O)(=O)CCNCc1ccc(-c2ccc3ncnc(Nc4ccc(OCc5cccc(F)c5)c(Cl)c4)c3c2)o1 [Lapatinib] (partner 2 µM)
In short: as §1

VX-11e + Linsitinib = compound: CC1=CN=C(N=C1C2=CNC(=C2)C(=O)N[C@H](CO)C3=CC(=CC=C3)Cl)NC4=C(C=C(C=C4)F)Cl [VX-11e] + C[C@]1(O)C[C@@H](c2nc(-c3ccc4ccc(-c5ccccc5)nc4c3)c3c(N)nccn32)C1 [Linsitinib] (partner 1 µM)
In short: as §1

Cell Line	relative viability (VX-11e + Luminespib; first compound 0.04 µM)	relative viability (VX-11e + Luminespib; first compound 0.1265 µM)	relative viability (VX-11e + Luminespib; first compound 0.4 µM)	relative viability (VX-11e + Luminespib; first compound 1.265 µM)	relative viability (VX-11e + Luminespib; first compound 4 µM)	relative viability (VX-11e + OSI-027; first compound 0.04 µM)	relative viability (VX-11e + OSI-027; first compound 0.1265 µM)	relative viability (VX-11e + OSI-027; first compound 0.4 µM)	relative viability (VX-11e + OSI-027; first compound 1.265 µM)	relative viability (VX-11e + OSI-027; first compound 4 µM)	relative viability (VX-11e + Lapatinib; first compound 0.04 µM)	relative viability (VX-11e + Lapatinib; first compound 0.1265 µM)	relative viability (VX-11e + Lapatinib; first compound 1.265 µM)	relative viability (VX-11e + Lapatinib; first compound 4 µM)	relative viability (VX-11e + Linsitinib; first compound 0.04 µM)	relative viability (VX-11e + Linsitinib; first compound 0.1265 µM)	relative viability (VX-11e + Linsitinib; first compound 1.265 µM)	relative viability (VX-11e + Linsitinib; first compound 4 µM)	relative viability (VX-11e + Lapatinib; first compound 0.4 µM)	relative viability (VX-11e + Linsitinib; first compound 0.4 µM)
NCI-H2405	0.798	0.719	0.395	0.717	0.296	0.587	0.599	0.375	0.768	0.37	1.07	1.01	1.05	0.349	0.933	0.787	0.817	0.272		
RERF-LC-KJ	1.32	1.06	1.05	1.21	1.11	0.442	0.474	0.528	0.504	0.327	0.833	0.776	0.848	0.649	0.989	0.863	0.874	0.708	0.879	0.862
PC-14	0.199	0.173		0.112	0.172	0.739	0.723	0.4	0.635	0.166	0.275	0.327	0.35	0.203	1	0.866	0.961	0.665	0.251	0.953
NCI-H661	0.981	0.913	0.937	0.907	0.603	0.727	0.632	0.751	0.625	0.396	0.527	0.5	0.386	0.314	0.598	0.617	0.501	0.394	0.446	0.568
EKVX	0.714	0.894	0.723	0.85	0.52	0.692	0.661	0.703	0.667	0.223	0.205	0.184	0.108	0.144	1.01	0.971	0.87	0.559	0.189	1.05
PC-3 [JPC-3]	0.627	0.595	0.66	0.744	0.591	0.705	0.714	0.685	0.866	0.544	0.384	0.485	0.453	0.445	1.08	0.959	1.09	0.822	0.436	0.99
NCI-H1355	0.681	0.683	0.552	0.638	0.47	0.302	0.311	0.197	0.256	0.224	0.613	0.948	0.728	0.48	0.861	0.798	0.574	0.374	0.879	0.786
ChaGo-K-1	0.633	0.646	0.561	0.688	0.507	0.546	0.533	0.395	0.527	0.439										
NCI-H1395	0.804	0.637	0.423	0.682	0.46	0.572	0.539	0.57	0.621	0.447	0.969	0.864	0.82	0.716	1.17	1.29	0.963	0.718	0.548	0.846
NCI-H2023	0.683	0.791	0.701	0.6	0.361	0.332	0.349	0.139	0.183	0.114	0.72	0.874	0.387	0.303	0.727	0.692	0.362	0.283	0.1	0.596
NCI-H1648						0.273	0.238	0.29	0.245	0.241										
LCLC-103H	0.98	0.698	1.03	0.83	0.785	0.461	0.458	0.43	0.402	0.344					1.24	0.985	0.857	0.836		0.954
Calu-6											1.07	1.03	0.364	0.226	1.08	0.926	0.179	0.115	1.05	0.935
SW 900	0.211	0.186	0.174	0.175	0.173	0.276	0.448	0.12	0.304	0.246										
NCI-H1299											0.984	0.953	0.918	0.559	1.08	0.944	0.682	0.36	1.1	0.942
NCI-H1650	0.195	0.185		0.192	0.186	0.592	0.534		0.402	0.307	0.76	0.626	0.289	0.444					0.204	
HCC-78							0.364	0.395	0.376	0.393	1.37	0.884	0.384	0.526	0.584	0.5	0.403	0.382	0.944	0.541
NCI-H2342	0.79	0.76	0.558	0.617	0.747	0.505	0.592	0.637	0.539	0.56										
IA-LM											0.71	0.945	0.17	0.126	0.694	0.516	0.132	0.142	0.853	0.469
NCI-H1703											1.49	1.18	1.08	0.791	0.294	0.655	0.748	0.502		
NCI-H522	1.23	1.28	1.05	0.82	0.832	0.615	0.683	0.556	0.613	0.572										
HCC-366						0.811	0.795		0.544	0.136	1	0.971	0.879	0.759	0.774	0.602	0.348	0.0744		
